{"source": "patent US4424220A", "about": "“Treatment of giardiasis and trichomoniasis” (priority 1982, dated 1984)", "key": {"[1]": {"conditions": "cited from earlier work"}, "Giardia lamblia [2]": {"system": "Giardia lamblia", "conditions": "humans; background, The New York Times, June 10, 1980; cited from earlier work"}, "T. foetus": {"system": "T. foetus", "assay": "In vitro anti-Trichomonas foetus activity (50% inhibition of growth)", "assay_type": "cell-based, Trichomonas foetus KV1", "conditions": "for IC50: Tritrichomonas foetus, read-out: Anti-T. foetus ED50", "procedure": "The activity of these compounds against Giardia lamblia and Trichomonas foetus are shown by the following test:\n(§1) About 1.0-2.0 ml of a nutrient medium, for example, the modified Diamond's TPS medium at pH 7.05, together with about 10% by volume of heat-inactiviated serum and about 1% by volume of antibiotic-antimycotic solution is placed in each well of a multiwell plate. To this mixture, an aliquot of a suspension of G. lamblia cells containing about 10^6 organisms is added. Subsequently, each well is inoculated with a known concentration of one of the active compounds. The multiwell plate containing the individual culture samples is incubated under anaerobic conditions at about 37° C. for about 16-24 hrs. The number of viable cells remaining in each well are then counted, such as with a hemacytometer. The percentage of survival is determined by comparison with controls inoculated with DMSO (dimethylsulfoxide) and the effective concentration (in parts per million) for 50% inhibition of growth (ED50) is determined. It is established that the lower the number of the value of ED50, the higher the activity of the active compound.\n(§2) In each well of a multiwell plate is placed 1.4 ml of media mix containing Diamond's TPS medium (see Table 2) at pH 7.05, 10% by volume of heat-inactivated fetal bovine serum, and 1% by volume of an antibiotic-antimycotic solution (see Table 3). A suspension of Giardia lamblia is centrifuged at 2,500 xg. for 6 minutes. The cells are resuspended in a small volume of the Diamond's medium, counted, and each well inoculated with approximately 10^6 organisms. A stock solution of fluorouracil is made at a concentration of 150 μg/ml. The wells are then inoculated with various concentrations of the drug. The plates are incubated for 24 hours at 37° C. in an anaerobic Gas Pak jar. After 24 hours of incubation each well is mixed and counted for viable organisms using a hemacytometer. The percentage of survival is determined by comparing the treated wells to controls treated with dimethylsulfoxide. […]"}, "T. vaginalis": {"system": "T. vaginalis", "assay": "Anti-T. vaginalis activity", "assay_type": "cell-based, Trichomonas vaginalis", "conditions": "procedure of Example 2; refers to Table 1"}, "Giardia lamblia [3]": {"system": "Giardia lamblia", "assay": "In vitro anti-Giardia lamblia activity (viable organisms counted by hemacytometer, 50% inhibition of growth)", "assay_type": "cell-based", "conditions": "Giardia duodenalis, read-out: Anti-G. lamblia ED50", "procedure": "as §1, with “The percentage of survival is determined by comparison with controls inoculated with DMSO (dimethylsulfoxide) and the effective concentration (in parts per million) for 50% inhibition of growth (ED50) is determined. It is established that the lower the number of the value of ED50, the higher the activity of the active compound.” left out\nas §2, with “A suspension of Giardia lamblia is centrifuged at 2,500 xg. for 6 minutes.” left out, “A stock solution of fluorouracil is made at a concentration of 150 μg/ml. The wells are then inoculated with various concentrations of the drug. The plates are incubated for 24 hours at 37° C. in an anaerobic Gas Pak jar.” left out"}}, "note": "Where two headings read alike, the source gives them in different places."}
{"smiles": "CCN(CC)CCCC(C)Nc1c2ccc(Cl)cc2nc2ccc(OC)cc12", "note": "(stereo not drawn) [Atabrine]", "values": [{"measurement": "adverse side effects", "setting": "[1]; in vivo", "value": "known to cause adverse side effects"}, {"measurement": "treatment of giardiasis infection", "setting": "Giardia lamblia [2]", "value": "successfully treated"}]}
{"smiles": "Cc1ncc([N+](=O)[O-])n1CCO", "note": "[Flagyl, metronidazole]", "values": [{"measurement": "adverse side effects", "setting": "[1]; in vivo", "value": "known to cause adverse side effects"}, {"measurement": "treatment of giardiasis infection", "setting": "Giardia lamblia [2]", "value": "successfully treated"}]}
{"smiles": "[O-][n+]1ccnc(O)c1", "note": "[emimycin, 2-hydroxypyrazine-4-oxide]", "values": [{"measurement": "IC50", "setting": "T. foetus; in vitro, 50% inhibition of growth, T. foetus KV1 in Example 2, 37° C., 24 hours", "value": "< 1", "unit": "µg/mL"}, {"measurement": "anti-T. vaginalis activity (in words)", "setting": "T. vaginalis", "value": "active anti-T. vaginalis agents"}, {"measurement": "IC50", "setting": "Giardia lamblia [3]; in vitro, effective concentration for 50% inhibition of growth, about 10^6 organisms per well, 37° C., anaerobic, 16-24 hrs (Example 1: 24 hours), controls with DMSO", "value": 22, "unit": "µg/mL"}]}
{"smiles": "O=c1[nH]cc(F)c(=O)[nH]1", "note": "[fluorouracil, 5-fluoro-2,4-(1H,3H)pyrimidenedione]", "values": [{"measurement": "IC50", "setting": "T. foetus; 24 h", "value": 3, "unit": "µg/mL"}, {"measurement": "anti-T. foetus activity (in words)", "setting": "T. foetus; in vitro, T. foetus KV1, 37° C., 24 hours", "value": "effective anti-T. foetus agent"}, {"measurement": "IC50", "setting": "Giardia lamblia [3]", "value": 100, "unit": "µg/mL"}]}
{"smiles": "O=C1OCCN1N=Cc1ccc([N+](=O)[O-])o1", "note": "[furazolidione]", "values": [{"measurement": "adverse side effects", "setting": "[1]; humans, background, The New York Times, June 10, 1980", "value": "known to cause adverse side effects"}, {"measurement": "treatment of giardiasis infection", "setting": "Giardia lamblia [2]", "value": "successfully treated"}]}
